Assay results taken from US11999805B1, “Peptide inhibitors of CRISPR-Cas9” (priority 2020, dated 2024).
“Also recorded” adds a separate entry of the source. Like-named read-outs stand apart in the source and are kept apart here. Residues, ends and D or L forms follow the SMILES beside them. No end group written: not given here.

What was measured:
[1] = target: T1, SpyCas9 (Streptococcus pyogenes serotype M1, UniProt Q99ZW2); assay: Beacon DNA binding assay (Cas9 RNP binding to DNA substrate); design: species or system S. pyogenes; settings: for binding of SpyCas9 RNP to DNA substrate (beacon fluorescence): peptide 40 μM, SpyCas9 500 nM, DNA substrate 50 nM
T1 sequence (Q99ZW2 whole entry): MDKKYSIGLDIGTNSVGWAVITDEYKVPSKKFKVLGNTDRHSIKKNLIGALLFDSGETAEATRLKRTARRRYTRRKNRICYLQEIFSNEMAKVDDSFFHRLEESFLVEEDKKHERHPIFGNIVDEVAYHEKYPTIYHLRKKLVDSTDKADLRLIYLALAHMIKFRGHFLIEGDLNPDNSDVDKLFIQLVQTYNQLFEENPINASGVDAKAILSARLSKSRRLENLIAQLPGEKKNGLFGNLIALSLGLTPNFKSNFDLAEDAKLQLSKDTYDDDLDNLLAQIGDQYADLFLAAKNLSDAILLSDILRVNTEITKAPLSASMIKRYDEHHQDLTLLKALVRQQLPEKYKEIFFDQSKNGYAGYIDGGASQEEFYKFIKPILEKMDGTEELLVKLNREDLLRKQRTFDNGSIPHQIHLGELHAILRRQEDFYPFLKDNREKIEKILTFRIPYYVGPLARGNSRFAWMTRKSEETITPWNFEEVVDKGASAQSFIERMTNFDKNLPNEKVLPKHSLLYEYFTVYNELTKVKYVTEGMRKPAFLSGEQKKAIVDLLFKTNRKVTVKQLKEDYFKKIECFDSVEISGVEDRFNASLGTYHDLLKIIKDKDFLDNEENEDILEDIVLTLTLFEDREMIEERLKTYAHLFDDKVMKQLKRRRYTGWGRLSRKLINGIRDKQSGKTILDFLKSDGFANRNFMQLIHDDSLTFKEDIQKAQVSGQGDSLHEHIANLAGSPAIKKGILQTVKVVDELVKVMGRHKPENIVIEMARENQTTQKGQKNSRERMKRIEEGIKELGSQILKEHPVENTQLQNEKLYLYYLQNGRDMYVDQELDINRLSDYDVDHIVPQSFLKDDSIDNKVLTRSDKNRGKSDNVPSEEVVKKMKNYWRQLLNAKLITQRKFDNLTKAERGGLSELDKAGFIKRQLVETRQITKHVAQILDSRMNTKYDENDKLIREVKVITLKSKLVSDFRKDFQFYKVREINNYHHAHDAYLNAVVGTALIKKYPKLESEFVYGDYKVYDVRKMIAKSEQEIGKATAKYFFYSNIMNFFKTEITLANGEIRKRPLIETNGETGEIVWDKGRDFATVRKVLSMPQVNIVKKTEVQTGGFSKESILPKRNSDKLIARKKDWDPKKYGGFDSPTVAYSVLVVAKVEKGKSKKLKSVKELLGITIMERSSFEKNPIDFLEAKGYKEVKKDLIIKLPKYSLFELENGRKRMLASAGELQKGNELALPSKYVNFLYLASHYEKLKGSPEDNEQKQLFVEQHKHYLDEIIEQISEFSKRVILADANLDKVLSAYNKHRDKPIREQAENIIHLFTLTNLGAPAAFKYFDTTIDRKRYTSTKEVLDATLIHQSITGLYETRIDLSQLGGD
Procedure: To determine the mechanism of action of these peptide inhibitors, a binding assay was performed to determine if inhibitors are blocking Cas9 RNP binding to the DNA substrate. The beacon DNA binding assay was adapted and performed as described in Mekler V, Minakhin L, Semenova E, Kuznedelov K, Severinov K. 2016. Kinetics of the CRISPR-Cas9 effector complex assembly and the role of 3′-terminal segment of guide RNA. Nucleic Acids Res 44:2837-45. DNA probes were prepared from unmodified and chromophore-labeled DNA oligonucleotides synthesized by Integrated DNA Technologies. Equimolar amounts of synthetic complementary strands were mixed in a buffer containing 40 mM Tris, pH 7.9, 100 mM NaCl; heated for 2 min at 90° C. and slowly cooled to 20° C. The PAM-distal ends of the beacon target and non-target strands were labeled with fluorescein and Iowa Black® FQ, respectively. Both beacons mimic native target DNA and bind Cas9/sgRNA. The fluorescent signal is increased when Cas9 binds the DNA substrate and a helix forms with the target substrate strand and gRNA resulting in dissociation of oligo 3, leading to increase in fluorescent signal.
Data are the average ±SD of three replicate wells.

[2] = target: T1, SpyCas9; type: cell-based, S. pyogenes; design: host or cells: protein RNP lipofected into A549 reporter cells; settings: for reduction of SpyCas9 editing (relative % CRISPR editing): A549 GFP reporter cells, 500 ng plasmid 24 h before SpyCas9 RNP, compared to plasmid control; for cell toxicity: A549 reporter cells
From the text: The cell-based reporter assay was generated using an endonuclease surrogate reporter construct expressed in A549 cells. This construct was composed of genes encoding two fluorescent proteins (red fluorescent protein (RFP) and green fluorescent protein (GFP)) linked by the endonuclease targeting sequence. In the absence of endonuclease (e.g. Cas9) expression, the reporter was designed to express the RFP but not GFP as it is placed out of frame. Upon expression of Cas9 with a targeting gRNA, the RNP introduces a double stranded break at the target site upstream of the GFP genes leading to frameshift mutations and expression of GFP (FIG. 7). An AAVS1 protospacer and PAM sequence used for targeting by SpyCas9 RNP is in between the RFP and GFP genes. RNP targeting to the AASV1+PAM sequence in the cell's nucleus results in a DSB and error prone NHEJ will likely cause either of the GFP genes to now become in-frame and induce GFP expression. The expression of GFP is strictly dependent on the presence of nuclease activity from endonucleases that specifically recognizes the target sequence in the reporter construct. A549 reporter cells for SpyCas9 were reverse transfected with 100-500 ng of indicated plasmids using Lipofectamine, the plasmids were at a 1:1 ratio with SpyCas9 RNP. […] After 24 hours the media was changed, and 100-500 ng of SpyCas9 RNP was forward transfected using CRISPRMax (Thermo Fisher).
Editing was assessed at 48 hours and 72 hours post transfection using the CX7 plate imager and/or flow cytometry using an ACCURI C6 flow cytometer (BD BIOSCIENCES) with FCS EXPRESS SOFTWARE (DE NOVO SOFTWARE). Cells were counted as edited if their FL-1 fluorescence was greater than that of the no RNP control. […] Error bars represent ±SD across technical replicates (n=2).

[3] = target: T1, SpyCas9; type: biochemical, S. pyogenes; settings: for IC50: read-out: SpyCas9 IC50, FRET cleavage assay, concentration curves, 0.5 μM Cas9, 50 nM DNA substrate
Procedure: (§1) To determine whether synthetic peptides would inhibit Cas9 cleavage activity, 200 peptide sequences were selected for chemical synthesis based on the following criteria: (1) peptides enriched after independent panning on RNP immobilized on both the Monomeric Avidin and NeutrAvidin columns, (2) Higher Boman index (>2.3), the computed potential protein-protein interaction for a given amino-acids sequence (3) a predicted instability index below 50. Theses peptides were screened at 200 μM for inhibition of Cas9 cleavage activity using the recently developed HT FRET-based assay using a dual-quencher substrate with low background and high sensitivity. See Seamon K J, Light Y K, Saada E A, Schoeniger J S, Harmon B. 2018. Versatile High-Throughput Fluorescence Assay for Monitoring Cas9 Activity. Analytical Chemistry 90:6913-6921. This assay specifically measures DNA substrate cleavage, and is able to differentiate between cleavage of a single strand of DNA and cleavage of both DNA strands.
(§2) Reactions (10 μL tubes) were set up in Cas9 reaction buffer (20 mM Tris-HCl, pH 7.5, 100 mM NaCl, 5 mM MgCl2, 0.1 mM EDTA) containing 50 nM annealed DNA substrate, 1.5 μM sgRNA, and 500 nM Cas9 in the wells of a black low volume 384-well plate. The reactions were incubated for 1 hour at ambient temperature; then, 10 μL of 8 M Gdn-HCl was added to quench the reaction before the plates were covered with an aluminum seal and incubated at 80° C. for 10 minutes. The fluorescence was read in a Tecan Infinite M1000 or SPARK plate spectrofluorometer (Tecan).
(§3) The peptides were diluted 2-fold from 200 to 12.5 μM and incubated for 1 hour with 500 nM SpyCas9, gRNA prior to addition of 50 nM FRET DNA substrate for 1 hour. […] Data are the average ±SD of three replicate wells.
(§4) For the 11 original peptides reactions (10 μL) were set up in Cas9 reaction buffer [20 mM Tris-HCl, pH 7.5, 100 mM NaCl, 5 mM MgCl2, 0.1 mM EDTA] containing 50 nM annealed DNA substrate, 1.5 μM sgRNA, and 0.5 μM Cas9 in the wells of a black low volume 384-well plate. The reactions were incubated for 1 hour at ambient temperature with the indicated concentration of peptide; then, 10 μL, of 8 M Guanidine-HCl was added to quench the reaction. The plates were covered with an aluminum seal and incubated at 75° C. for 10 minutes and cooled down to RT before reading.
(§5) The % inhibition was determined by subtracting normalized relative fluorescent value to Cas9 without peptides (% activity) from 100% cleavage activity of CjeCas9, SauCas9, SpyCas9 by FRET assay. Data are the average ±SD of eleven replicate wells from three technical replicates at the indicated concentration of peptides.
(§6) FIGS. 12A, 12B, and 12C show graphs of measurements and fitted curves of concentration dependent inhibition of mutated peptides against Cas9 variants. The inhibition was measured as relative fluorescent value to Cas9 without peptides (% activity) of CjeCas9 (line with squares), SauCas9 (line with diamonds), SpyCas9 (line with triangles) by FRET assay with the indicated concentration of peptides and compared to original peptides (line with circles). Data are the average ±SD of eleven replicate wells from three technical replicates.

[4] = target: T2, CjeCas9 (Campylobacter jejuni subsp. jejuni serotype O:2, UniProt Q0P897); assay: HT FRET-based Cas9 cleavage activity assay, CjeCas9; type: biochemical, C. jejuni
T2 construct: made in house; host or cells: E. coli BL21(star)DE3
T2 sequence (Q0P897 whole entry): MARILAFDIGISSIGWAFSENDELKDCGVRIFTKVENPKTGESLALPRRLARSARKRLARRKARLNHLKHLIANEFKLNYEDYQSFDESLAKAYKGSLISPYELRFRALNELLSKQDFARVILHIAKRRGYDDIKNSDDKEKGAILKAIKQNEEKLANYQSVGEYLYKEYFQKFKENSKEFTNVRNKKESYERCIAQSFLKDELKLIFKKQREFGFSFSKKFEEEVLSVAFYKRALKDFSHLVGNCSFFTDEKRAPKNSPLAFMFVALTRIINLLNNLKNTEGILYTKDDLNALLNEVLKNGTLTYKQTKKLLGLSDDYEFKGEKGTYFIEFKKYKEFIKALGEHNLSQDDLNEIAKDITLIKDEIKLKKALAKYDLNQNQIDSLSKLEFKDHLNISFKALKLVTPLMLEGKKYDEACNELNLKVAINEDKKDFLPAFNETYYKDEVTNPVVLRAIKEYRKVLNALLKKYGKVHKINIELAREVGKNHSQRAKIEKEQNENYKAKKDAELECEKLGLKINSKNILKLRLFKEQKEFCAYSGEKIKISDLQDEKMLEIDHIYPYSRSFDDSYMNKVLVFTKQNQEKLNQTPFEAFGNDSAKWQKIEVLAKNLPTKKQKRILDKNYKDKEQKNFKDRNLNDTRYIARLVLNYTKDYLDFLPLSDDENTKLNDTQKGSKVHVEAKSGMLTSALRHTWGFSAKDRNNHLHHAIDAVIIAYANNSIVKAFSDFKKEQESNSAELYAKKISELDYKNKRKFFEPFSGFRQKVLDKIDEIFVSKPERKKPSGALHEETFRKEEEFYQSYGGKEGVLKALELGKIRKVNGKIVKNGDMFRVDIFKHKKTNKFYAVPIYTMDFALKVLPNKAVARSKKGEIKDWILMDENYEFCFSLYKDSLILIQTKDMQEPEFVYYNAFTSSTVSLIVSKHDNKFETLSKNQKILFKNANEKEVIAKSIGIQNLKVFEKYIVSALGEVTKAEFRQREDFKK
Procedure: (§7) To evaluate the ability of identified peptides to inhibit other Cas9 variants, SauCas9 and CjeCas9 cleavage assays were used to quantitatively measure changes in activity. […] The inhibition was measured as relative fluorescent value to Cas9 without peptides (% activity) of CjeCas9 (Top), SauCas9 (middle), SpyCas9 (bottom) by FRET assay with the indicated concentration of peptides. Data are the average ±SD of eleven replicate wells from three technical replicates.
as §4, §5, §6

[5] = target: T3, SauCas9 (Staphylococcus aureus, UniProt J7RUA5); assay: HT FRET-based Cas9 cleavage activity assay, SauCas9; type: biochemical, S. aureus
T3 construct: made in house; host or cells: E. coli BL21(star)DE3
T3 sequence (J7RUA5 whole entry): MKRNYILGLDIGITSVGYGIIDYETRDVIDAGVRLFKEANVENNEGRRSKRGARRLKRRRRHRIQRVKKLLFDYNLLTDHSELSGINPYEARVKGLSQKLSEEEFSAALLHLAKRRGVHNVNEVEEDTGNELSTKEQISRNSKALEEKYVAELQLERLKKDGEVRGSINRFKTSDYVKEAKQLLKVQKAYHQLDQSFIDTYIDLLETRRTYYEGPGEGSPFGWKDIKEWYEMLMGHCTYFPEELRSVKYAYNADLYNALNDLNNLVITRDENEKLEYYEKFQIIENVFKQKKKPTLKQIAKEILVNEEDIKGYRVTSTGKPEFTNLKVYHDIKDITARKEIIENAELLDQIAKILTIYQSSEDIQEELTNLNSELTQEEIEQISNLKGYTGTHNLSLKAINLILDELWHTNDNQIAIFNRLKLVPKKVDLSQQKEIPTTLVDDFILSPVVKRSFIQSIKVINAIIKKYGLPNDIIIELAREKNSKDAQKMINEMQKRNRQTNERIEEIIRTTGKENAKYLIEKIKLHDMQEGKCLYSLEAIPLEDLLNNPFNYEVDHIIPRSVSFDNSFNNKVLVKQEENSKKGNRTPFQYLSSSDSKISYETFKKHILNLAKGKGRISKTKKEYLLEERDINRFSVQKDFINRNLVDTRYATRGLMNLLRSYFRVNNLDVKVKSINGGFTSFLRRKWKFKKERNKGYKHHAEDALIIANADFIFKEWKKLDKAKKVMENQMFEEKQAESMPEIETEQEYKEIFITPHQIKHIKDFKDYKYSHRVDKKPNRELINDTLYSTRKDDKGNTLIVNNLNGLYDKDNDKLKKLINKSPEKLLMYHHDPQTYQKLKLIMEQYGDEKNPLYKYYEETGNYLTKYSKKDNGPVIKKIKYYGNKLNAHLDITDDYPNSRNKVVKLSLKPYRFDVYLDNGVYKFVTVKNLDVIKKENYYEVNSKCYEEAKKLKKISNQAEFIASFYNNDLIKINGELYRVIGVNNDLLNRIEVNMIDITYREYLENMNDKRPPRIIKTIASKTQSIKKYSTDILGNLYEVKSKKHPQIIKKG
Procedure: as §7, §4, §5, §6

[6] = test system: SpyCas9; type: biochemical, S. pyogenes
Procedure: as §1, §2, §3, §4, §5, §6

Molecule | IC50 [3] | IC50 [4] | IC50 [5] | further results
LRQISNTSIVMGTTPSSVAVCG [Peptide 61] | – | – | – | mechanism subset: blocks Cas9 RNP binding to target DNA or other mechanism [1]: inhibit CACs9 RNP cleavage by another mechanism
VCAFSADESLLIRRRHQRRRAG [Peptide 60] | 92.2 µM | – | – | reduction of SpyCas9 editing (relative % CRISPR editing) [2]: 30±2.3%; cell toxicity [2]: without cell toxicity
RERRRSLIQISVKSYPLFLGGT [Peptide 82-2-28] | 72.5 µM | > 200 µM | 153 µM | –
KERRRSMMQLSVKSYTLFLGGT [Peptide 82-2-21] | 31.8 µM | 51.8 µM | 40.9 µM | activity against SpyCas9, SauCas9 and CjeCas9 (in words) [6]: particularly strong activity
LNVKIGNAHLTTIMSTMPLVLC [Peptide 63] | – | – | – | mechanism subset: blocks Cas9 RNP binding to target DNA or other mechanism [1]: inhibit CACs9 RNP cleavage by another mechanism
GDPNSRRSHIARLLAMSLTWYS [Peptide 99-1-1] | 63.2 µM | 105 µM | 99.3 µM | –
RLYHQCFLACLIDRQSPRNV [Peptide 73] | – | – | – | mechanism subset: blocks Cas9 RNP binding to target DNA or other mechanism [1]: block Cas9 RNP binding to the target DNA; binding of SpyCas9 RNP to DNA substrate (beacon fluorescence) [1]: unaltered; also recorded: did not reduce substrate binding
TESIRSYFAMTIRRNH [Peptide 80] | – | – | – | mechanism subset: blocks Cas9 RNP binding to target DNA or other mechanism [1]: block Cas9 RNP binding to the target DNA
KERHRSLMRTTVKYYSLCLGGT [Peptide 82-2-12] | 35.3 µM | 87.1 µM | 69 µM | –
NRSHKILLHYNGCHYRLFLRSL [Peptide 90-1-27] | 28.5 µM | 58.3 µM | 45 µM | activity against SpyCas9, SauCas9 and CjeCas9 (in words) [6]: particularly strong activity
KERRRSLMQLSVKSNSLFLGGT [Peptide 82] | – | – | – | mechanism subset: blocks Cas9 RNP binding to target DNA or other mechanism [1]: inhibit CACs9 RNP cleavage by another mechanism
DRSQKIFLRYNRCRYRLLQRGL [Peptide 90-1-18] | 48.4 µM | 73.6 µM | 58.4 µM | –
VRVFSAYERLLIRRRRRRRRAG [Peptide 60-1-10] | 27.2 µM | 30.1 µM | 27.3 µM | activity against SpyCas9, SauCas9 and CjeCas9 (in words) [6]: particularly strong activity
LNVKIENAHLTTNLSTMPLVLC [Peptide 63-2-87] | > 200 µM | 90.9 µM | > 200 µM | –
DGSLKILLRYNGCHYRLLQRSL [Peptide 90-3-50] | 65.5 µM | > 200 µM | > 200 µM | –
DRSHKILLCYNGRNKRLLLRRL [Peptide 90-2-18] | 47.2 µM | 74.9 µM | 68.2 µM | –
DRSHKILLRHSGCLYRFLQRYL [Peptide 90-2-5] | 86.5 µM | > 200 µM | 91.3 µM | –
CC[C@H](C)[C@H](NC(=O)[C@H](CCCNC(=N)N)NC(=O)[C@H](Cc1ccc(O)cc1)NC(=O)[C@H](Cc1ccc(O)cc1)NC(=O)[C@@H](N)CC(C)C)C(=O)N[C@@H](CCSC)C(=O)N[C@@H](CC(C)C)C(=O)N[C@@H](CO)C(=O)N[C@@H](CS)C(=O)N1CCC[C@H]1C(=O)N[C@@H](CCCCN)C(=O)N[C@@H](Cc1ccc(O)cc1)C(=O)N[C@@H](Cc1ccc(O)cc1)C(=O)N1CCC[C@H]1C(=O)N[C@@H](CS)C(=O)N[C@@H](CCC(=O)O)C(=O)N[C@@H](CC(C)C)C(=O)N[C@H](C(=O)NCC(=O)N[C@@H](Cc1c[nH]cn1)C(=O)N[C@H](C(=O)N[C@@H](CO)C(=O)O)[C@@H](C)O)C(C)C [Peptide 50] (H-LYYRIMLSCPKYYPCELVGHTS-OH) | 145 µM | – | – | reduction of SpyCas9 editing (relative % CRISPR editing) [2]: 30±1.4%; cell toxicity [2]: without cell toxicity
IAGFRREWFNQNTYFENWHADR [Peptide 15] | – | – | – | reduction of SpyCas9 editing (relative % CRISPR editing) [2]: 21±4.2%; cell toxicity [2]: without cell toxicity
RRSHIAWLLAMSLTWYS [Peptide 99] | – | – | – | activity of SpyCas9 (% activity, FRET) ([3]; peptide 100 μM): significantly reduced activity; activity of SpyCas9 (% activity, FRET) ([3]; peptide 200 μM): significantly reduced activity; activity of CjeCas9 (% activity, FRET) ([4]; peptide 100 μM): significantly reduced activity; activity of CjeCas9 (% activity, FRET) ([4]; peptide 200 μM): significantly reduced activity; activity of SauCas9 (% activity, FRET) ([5]; peptide 100 μM): significantly reduced activity; activity of SauCas9 (% activity, FRET) ([5]; peptide 200 μM): significantly reduced activity; mechanism subset: blocks Cas9 RNP binding to target DNA or other mechanism [1]: block Cas9 RNP binding to the target DNA; binding of SpyCas9 RNP to DNA substrate (beacon fluorescence) [1]: significantly reduced; also recorded: reducing binding
PNVKIGKAHLTTIMSTMPLIIC [Peptide 63-2-27] | 81.6 µM | > 200 µM | 95.3 µM | –
DRSHKILLRYNGCHYRLLQRSL [Peptide 90] | 114 µM | – | – | reduction of SpyCas9 editing (relative % CRISPR editing) [2]: 35±2.1%; cell toxicity [2]: without cell toxicity
VSAYSADESLLIRRRRRRRRAG [Peptide 60-1-56] | 44.6 µM | 69.2 µM | 62.9 µM | –
RDPNSRRSHIARLLAMSLTWYS [Peptide 99-2-2] | 56.2 µM | > 200 µM | 110 µM | –
